For one test, the system named is PC-3. The test is described as follows: Cytotoxicty against human PC3 cells after 24 hrs by MTT assay. Format: functional, cell-based. Particulars: PC-3, 24 h.
The next test relates to HeLa. As to the kind of experiment: Cytotoxicty against human HeLa cells after 24 hrs by MTT assay. Format: functional, cell-based.
In another test the test system is HUVEC. As to the kind of experiment: Cytotoxicty against HUVEC after 24 hrs by MTT assay. It is filed as cell-based. Particulars: Homo sapiens.
In another test the test system is Erythrocyte. The test is described as follows: Hemolytic activity in human red blood cells after 1 hr. It is filed as ADME, cell-based.

Structures are written as SMILES. pIC50: −log10 of the molar value. Bridge positions count the residues as written; N and C are the ends. Peptide text beside a SMILES is read from it. A value given as a limit tells only on which side of the number the result lay.

`CC(C)C[C@@H]1NC(=O)CNC(=O)[C@H](CC(N)=O)NC(=O)[C@H](CCCNC(=N)N)NC(=O)[C@H]([C@@H](C)O)NC(=O)[C@@H]2CSSC[C@@H]3NC(=O)[C@H]([C@@H](C)O)NC(=O)CNC(=O)CNC(=O)[C@H](C(C)C)NC(=O)[C@@H]4CSSC[C@H](NC(=O)[C@H](CO)NC(=O)[C@H](CSSC[C@H](NC(=O)[C@H](C(C)C)NC(=O)[C@@H]5CCCN5C1=O)C(=O)NCC(=O)N[C@@H](CCC(=O)O)C(=O)N[C@@H]([C@@H](C)O)C(=O)N4)NC(=O)CNC(=O)[C@@H]1CCCN1C(=O)[C@H]([C@@H](C)O)NC(=O)[C@H](CC(N)=O)NC3=O)C(=O)N[C@@H](CO)C(=O)N[C@@H](Cc1c[nH]c3ccccc13)C(=O)N1CCC[C@H]1C(=O)N[C@@H](C(C)C)C(=O)N2`: the pIC50 (in general, −log10 of the IC50, conventionally taken in molar units) with PC-3 is 5.44; in the test on HeLa it was 5.28; in the test on HUVEC it was 5.40; in the test on Erythrocyte, no more than 4.30.
Turning to `CC[C@H](C)[C@@H]1NC(=O)[C@@H]2CSSC[C@@H]3NC(=O)[C@H](C(C)C)NC(=O)[C@H](CCCCN)NC(=O)[C@H](CO)NC(=O)[C@H](CCCCN)NC(=O)[C@@H]4CSSC[C@H](NC(=O)[C@H](CO)NC(=O)[C@H](CCC(=O)O)NC(=O)CNC(=O)[C@H](CSSC[C@H](NC(=O)CNC(=O)[C@H](CC(C)C)NC(=O)[C@H](C)NC(=O)[C@H](C)NC(=O)[C@H]([C@@H](C)O)NC1=O)C(=O)N[C@H](CO)C(=O)N4)NC(=O)[C@@H]1CCCN1C(=O)[C@H]([C@@H](C)CC)NC(=O)CNC(=O)[C@H](CC(N)=O)NC(=O)[C@H](CCCNC(=N)N)NC(=O)[C@H](Cc1ccc(O)cc1)NC3=O)C(=O)N[C@@H](C(C)C)C(=O)N[C@@H](Cc1ccc(O)cc1)C(=O)N[C@@H]([C@@H](C)CC)C(=O)N1CCC[C@H]1C(=O)N2`, the pIC50 in the test on PC-3 was 6.30; with HeLa it was 6.30; in the test with HUVEC, 6.40; in the test on Erythrocyte, 4.95.
`CC[C@H](C)[C@@H]1NC(=O)[C@@H]2CSSC[C@@H]3NC(=O)[C@H](C(C)C)NC(=O)[C@H](CCCCN)NC(=O)[C@H](CO)NC(=O)[C@H](CCCCN)NC(=O)[C@@H]4CSSC[C@H](NC(=O)[C@H](CO)NC(=O)[C@H](CCC(=O)O)NC(=O)CNC(=O)[C@H](CSSC[C@H](NC(=O)CNC(=O)[C@@H](CC(C)C)NC(=O)[C@H](CC(C)C)NC(=O)[C@H]([C@@H](C)O)NC(=O)[C@H](CO)NC1=O)C(=O)N[C@@H](CO)C(=O)N4)NC(=O)[C@@H]1CCCN1C(=O)[C@H]([C@@H](C)CC)NC(=O)[C@H](C(C)C)NC(=O)CNC(=O)[C@H](CC(N)=O)NC(=O)[C@H](CCCNC(=N)N)NC(=O)[C@H](Cc1ccc(O)cc1)NC3=O)C(=O)N[C@@H](C(C)C)C(=O)N[C@@H](Cc1ccccc1)C(=O)N[C@@H]([C@@H](C)CC)C(=O)N1CCC[C@H]1C(=O)N2`: the pIC50 with PC-3 is 5.96; in the test on HeLa, 5.74; in the test with HUVEC, 5.92.
For `CC[C@H](C)[C@@H]1NC(=O)[C@H](C)NC(=O)[C@H](CO)NC(=O)[C@H](CO)NC(=O)[C@H]([C@@H](C)CC)NC(=O)[C@@H]2CSSC[C@@H]3NC(=O)[C@H](C(C)C)NC(=O)[C@H](CCCCN)NC(=O)[C@H](CO)NC(=O)[C@H](CCCCN)NC(=O)[C@@H]4CSSC[C@H](NC(=O)[C@H](CO)NC(=O)[C@H](CCC(=O)O)NC(=O)CNC(=O)[C@H](CSSC[C@H](NC(=O)CNC1=O)C(=O)N[C@@H](CO)C(=O)N4)NC(=O)[C@@H]1CCCN1C(=O)[C@H]([C@@H](C)CC)NC(=O)CNC(=O)[C@H](CC(N)=O)NC(=O)[C@H](CCCNC(=N)N)NC(=O)[C@H](Cc1ccc(O)cc1)NC3=O)C(=O)N[C@@H](C(C)C)C(=O)N[C@@H](Cc1c[nH]c3ccccc13)C(=O)N[C@@H]([C@@H](C)CC)C(=O)N1CCC[C@H]1C(=O)N2` (cyclo(AIGCSCKSKVCYRNGIPCGESCVWIPCISS); disulfide 4-18, 6-22, 11-27), the pIC50 in the test with PC-3 was 6.10; in the test with HeLa it was 6.15; in the test with HUVEC it was 6.22.
Consider `CC[C@H](C)[C@@H]1NC(=O)[C@H](C)NC(=O)[C@H](C)NC(=O)[C@H](CO)NC(=O)[C@H]([C@@H](C)CC)NC(=O)[C@@H]2CSSC[C@@H]3NC(=O)[C@H](C(C)C)NC(=O)[C@H](CCCCN)NC(=O)[C@H](CO)NC(=O)[C@H](CCCCN)NC(=O)[C@@H]4CSSC[C@H](NC(=O)[C@H](CO)NC(=O)[C@H](CCC(=O)O)NC(=O)CNC(=O)[C@H](CSSC[C@H](NC(=O)CNC1=O)C(=O)N[C@@H](CO)C(=O)N4)NC(=O)[C@@H]1CCCN1C(=O)[C@H]([C@@H](C)CC)NC(=O)CNC(=O)[C@H](CC(N)=O)NC(=O)[C@H](CCCNC(=N)N)NC(=O)[C@H](Cc1ccc(O)cc1)NC3=O)C(=O)N[C@@H](C(C)C)C(=O)N[C@@H](Cc1c[nH]c3ccccc13)C(=O)N[C@@H]([C@@H](C)CC)C(=O)N1CCC[C@H]1C(=O)N2` [CYCLOVIOLACIN O13] (cyclo(AAIGCSCKSKVCYRNGIPCGESCVWIPCIS); disulfide 5-19, 7-23, 12-28), for which the pIC50 is 6.22 in the test on PC-3, 6.15 in the test on HeLa, 6.30 with HUVEC and 4.83 in the test with Erythrocyte.

The record behind these values is ChEMBL document CHEMBL4619762, “Exploring the Sequence Diversity of Cyclotides from Vietnamese Viola Species” (J Nat Prod, 2020).
